The values below come from ChEMBL document CHEMBL4699487, “Discovery of ONO-8590580: A novel, potent and selective GABA α negative allosteric modulator for the treatment of cognitive disorders” (Bioorg Med Chem Lett, 2020).

Each structure is given as a SMILES string.

Data set [1] is described as follows: Apparent permeability in MDCK-MDR1 cells. Format: ADME, cell-based, Canis lupus familiaris. Conditions: dog.
Data set [2] is described as follows: Volume of distribution at steady state in rat at […], iv. It counts as ADME, organism-based. Conditions: in vivo, dose 0.44 mg/kg, read-out: Vdss.
The nature of data set [3]: Cmax in rat at […], iv. It counts as ADME, organism-based. Set-up: route intravenous, dose 0.44 mg/kg. Conditions: in vivo.
Data set [4] is described as follows: AUC infinity in rat at […], iv. It counts as ADME, organism-based. Set-up: route intravenous, time infinity, dose 0.44 mg/kg. Conditions: in vivo.
Data set [5] in a line: Cmax in rat at 3 mg/kg, po. Format: ADME, organism-based. Also on record: route oral, dose 3 mg/kg. The following applies: in vivo.
Data set [6] can be described thus: AUC infinity in rat at 3 mg/kg, po. The following applies: in vivo. It counts as ADME, organism-based. Also on record: time infinity, route oral, dose 3 mg/kg.
The nature of data set [7]: Oral bioavailability in rat at 3 mg/kg. It counts as ADME, organism-based. The following applies: in vivo.

On to `Cc1c(F)c(Nc2ccc(-c3cn(C)cn3)cn2)cc2c1ncn2CC1CC1`, for which the Papp in data set [1] is 47 ×10⁻⁶ cm/s. Further, the Vd in data set [2] was 1.7 L/kg. Moreover, the maximum concentration (Cmax) in data set [3] is 278 ng/mL; in data set [5], 520 ng/mL. For the same compound, the AUC(0-inf) in data set [4] is 400 ng·h/mL; in data set [6], 1780 ng·h/mL. For the same compound, the bioavailability in data set [7] worked out at 65%.

A word on the Papp: it is the rate of passage across a membrane or cell layer, normalised by area and donor concentration. A word on the Cmax: it is the peak of the concentration-time curve. Usually AUC(0-inf) stands for the area under the concentration-time curve extrapolated to infinity. A lower AUC(0-inf) goes with low exposure. As usually defined, the bioavailability is the share of a dose that reaches the circulation, judged against a reference dose that is usually intravenous. Low values mean little systemic uptake, high ones much systemic uptake.
